Results: US20260138961A1, “MODULATORS OF MITOCHONDRIAL DNA REPLICATION” (Pretzel Therapeutics, Inc., priority 2022, published 2026)

biological target: T1, POLγA:A467T (Homo sapiens, UniProt P54098, A467T); experiment: DNA polymerization assay, POLγA:A467T mutant; format: biochemical; details: stimulation of polymerase activity, primed M13mp18 ssDNA, 37° C. 2 hours; read-out: A467T AC50
T1 sequence (P54098 1-1239 A467T): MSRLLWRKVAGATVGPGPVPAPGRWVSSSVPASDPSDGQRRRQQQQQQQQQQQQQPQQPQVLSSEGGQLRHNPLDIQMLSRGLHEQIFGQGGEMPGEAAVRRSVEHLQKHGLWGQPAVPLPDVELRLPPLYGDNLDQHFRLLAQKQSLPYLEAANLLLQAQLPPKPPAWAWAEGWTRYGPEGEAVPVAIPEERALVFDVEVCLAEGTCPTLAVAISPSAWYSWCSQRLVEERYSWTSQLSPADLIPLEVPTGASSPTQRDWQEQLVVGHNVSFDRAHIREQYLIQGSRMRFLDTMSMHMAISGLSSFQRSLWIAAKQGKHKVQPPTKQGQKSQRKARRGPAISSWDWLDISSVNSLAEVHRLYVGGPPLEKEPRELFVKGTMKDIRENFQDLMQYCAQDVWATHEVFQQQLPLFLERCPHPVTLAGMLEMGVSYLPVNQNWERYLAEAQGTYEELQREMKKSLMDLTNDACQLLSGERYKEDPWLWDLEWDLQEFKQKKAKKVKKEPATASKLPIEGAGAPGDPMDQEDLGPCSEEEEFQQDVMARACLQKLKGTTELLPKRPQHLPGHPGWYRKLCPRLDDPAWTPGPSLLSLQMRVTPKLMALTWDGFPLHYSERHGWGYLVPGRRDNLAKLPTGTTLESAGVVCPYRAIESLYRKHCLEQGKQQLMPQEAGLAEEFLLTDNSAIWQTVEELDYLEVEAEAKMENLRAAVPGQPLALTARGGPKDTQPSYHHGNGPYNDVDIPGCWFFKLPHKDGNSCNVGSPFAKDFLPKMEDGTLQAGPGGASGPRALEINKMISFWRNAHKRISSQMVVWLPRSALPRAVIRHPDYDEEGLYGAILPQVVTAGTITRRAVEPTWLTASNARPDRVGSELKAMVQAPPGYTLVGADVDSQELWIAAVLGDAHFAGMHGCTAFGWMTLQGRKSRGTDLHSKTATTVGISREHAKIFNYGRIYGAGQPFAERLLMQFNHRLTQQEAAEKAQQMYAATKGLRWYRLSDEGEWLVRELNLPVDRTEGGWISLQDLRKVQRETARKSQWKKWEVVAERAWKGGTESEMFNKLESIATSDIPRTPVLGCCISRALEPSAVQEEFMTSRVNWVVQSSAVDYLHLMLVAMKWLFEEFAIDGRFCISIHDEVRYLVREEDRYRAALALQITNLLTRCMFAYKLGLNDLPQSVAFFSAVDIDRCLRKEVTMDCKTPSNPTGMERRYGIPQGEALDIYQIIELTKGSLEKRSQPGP
T1 sequence (Q9UHN1 1-485 partner): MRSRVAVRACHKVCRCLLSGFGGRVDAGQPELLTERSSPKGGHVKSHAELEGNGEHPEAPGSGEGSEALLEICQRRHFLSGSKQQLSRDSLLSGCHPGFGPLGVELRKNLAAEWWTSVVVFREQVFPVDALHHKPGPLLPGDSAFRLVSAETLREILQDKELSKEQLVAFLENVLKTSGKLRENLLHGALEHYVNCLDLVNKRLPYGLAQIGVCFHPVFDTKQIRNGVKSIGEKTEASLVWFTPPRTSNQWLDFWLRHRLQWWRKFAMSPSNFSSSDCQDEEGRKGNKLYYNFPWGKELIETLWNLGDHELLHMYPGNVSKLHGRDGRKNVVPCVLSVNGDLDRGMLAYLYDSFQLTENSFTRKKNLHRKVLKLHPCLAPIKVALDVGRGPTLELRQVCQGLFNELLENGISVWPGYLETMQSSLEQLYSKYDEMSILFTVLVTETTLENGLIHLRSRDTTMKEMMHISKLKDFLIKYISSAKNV

| AC50 [µM] | SMILES |
| --- | --- |
| 5 | Cc1ccc(C)c(S(=O)(=O)Nc2cccc(-c3nccs3)c2)c1 [Example 60] |
| > 100 | Cc1cc(S(=O)(=O)Nc2cc(-c3nccs3)ccc2F)c(C)cc1Cl [Example 61, 4-chloro-N-(2-fluoro-5-(thiazol-2-yl)phenyl)-2,5-dimethylbenzenesulfonamide] |
| > 100 | Cc1cc(S(=O)(=O)Nc2cc(F)cc(-c3nccs3)c2)c(C)cc1Cl [Example 62, 4-chloro-N-(3-fluoro-5-(thiazol-2-yl)phenyl)-2,5-dimethylbenzenesulfonamide] |
| > 100 | Cc1cc(S(=O)(=O)Nc2ccc(F)c(-c3nccs3)c2)c(C)cc1Cl [Example 63, 4-chloro-N-(4-fluoro-3-(thiazol-2-yl)phenyl)-2,5-dimethylbenzenesulfonamide] |
| 8 | Cc1cc(S(=O)(=O)Nc2cccc(-c3cc(C4CC4)[nH]n3)c2)c(C)cc1Cl [Example 64, 4-chloro-N-(3-(5-cyclopropyl-1H-pyrazol-3-yl)phenyl)-2,5-dimethylbenzenesulfonamide] |
| 11 | Cc1cc(-c2cccc(NS(=O)(=O)c3cc(C)c(Cl)cc3C)c2)n[nH]1 [Example 66, 4-chloro-2,5-dimethyl-N-(3-(5-methyl-1H-pyrazol-3-yl)phenyl)benzenesulfonamide] |
| 16 | Cc1cc(S(=O)(=O)Nc2cccc(-c3cc[nH]n3)c2)c(C)cc1Cl [Example 68, N-(3-(1H-pyrazol-3-yl)phenyl)-4-chloro-2,5-dimethylbenzenesulfonamide] |
| 32 | Cc1nc2ccc(NS(=O)(=O)c3cc(C)c(Cl)cc3C)cc2o1 [Example 70, 4-chloro-2,5-dimethyl-N-(2-methylbenzo[d]oxazol-6-yl)benzenesulfonamide] |
| > 100 | Cc1nc2cc(NS(=O)(=O)c3cc(C)c(Cl)cc3C)ccc2s1 [Example 71, 4-chloro-2,5-dimethyl-N-(2-methylbenzo[d]thiazol-5-yl)benzenesulfonamide] |
| > 100 | COc1ccccc1-c1nc(NS(=O)(=O)c2cc(C)c(Cl)cc2C)cs1 [Example 155, 4-chloro-N-(2-(2-methoxyphenyl)thiazol-4-yl)-2,5-dimethylbenzenesulfonamide] |
| > 100 | Cc1cc(S(=O)(=O)Nc2nc(-c3ccccc3)co2)c(C)cc1Cl [Example 157, 4-chloro-2,5-dimethyl-N-(4-phenyloxazol-2-yl)benzenesulfonamide] |
| 1 | COc1cccc(-c2nc(NS(=O)(=O)c3cc(C)c(Cl)cc3C)cs2)c1 [Example 165, 4-chloro-N-(2-(3-methoxyphenyl)thiazol-4-yl)-2,5-dimethylbenzenesulfonamide] |

The next lines start with the compound.

| SMILES | AC50 [µM] |
| --- | --- |
| Cc1cc(S(=O)(=O)Nc2cccc(C(=O)N3CCN(C)CC3)c2)c(C)cc1Cl [Example 52, 4-chloro-2,5-dimethyl-N-(3-(4-methylpiperazine-1-carbonyl)phenyl)benzenesulfonamide] | > 100 |
| Cc1cc(S(=O)(=O)Nc2cccc(C(=O)NCCO)c2)c(C)cc1Cl [Example 53, 3-((4-chloro-2,5-dimethylphenyl)sulfonamido)-N-(2-hydroxyethyl)benzamide] | > 100 |
| Cc1cc(S(=O)(=O)Nc2cccc(C(=O)N3CCN(C)C[C@H]3C)c2)c(C)cc1Cl [Example 54, (R)-4-chloro-N-(3-(2,4-dimethylpiperazine-1-carbonyl)phenyl)-2,5-dimethylbenzenesulfonamide] | > 100 |
| Cc1cc(S(=O)(=O)Nc2cccc(C(=O)N3CCN(CCO)CC3)c2)c(C)cc1Cl [Example 55, 4-chloro-N-(3-(4-(2-hydroxyethyl)piperazine-1-carbonyl)phenyl)-2,5-dimethylbenzenesulfonamide] | > 100 |
| Cc1cc(S(=O)(=O)Nc2cccc(C(=O)N(C)CCO)c2)c(C)cc1Cl [Example 56, 3-((4-chloro-2,5-dimethylphenyl)sulfonamido)-N-(2-hydoxyethyl)-N-methylbenzamide] | > 100 |
| Cc1cc(S(=O)(=O)Nc2cccc(C(=O)N3CCC[C@H]3C)c2F)c(C)cc1Cl [Example 57, (R)-4-chloro-N-(2-fluoro-3-(2-methylpyrrolidine-1-carbonyl)phenyl)-2,5-dimethylbenzenesulfonamide] | > 100 |
| COCCN(C)C(=O)c1cccc(NS(=O)(=O)c2cc(C)c(Cl)cc2C)c1 [Example 58, 3-((4-chloro-2,5-dimethylphenyl)sulfonamido)-N-(2-methoxyethyl)-N-methylbenzamide] | > 100 |
| O=S(=O)(Nc1cccc(-c2nccs2)c1)c1ccc(Cl)cc1 [Example 59, 4-chloro-N-(3-(thiazol-2-yl)phenyl)benzenesulfonamide] | > 100 |
| CC[C@@H]1CCCN1C(=O)c1cccc(NS(=O)(=O)c2cc(C)c(Cl)cc2C)c1 [Example 65, (R)-4-chloro-N-(3-(2-ethylpyrrolidine-1-carbonyl)phenyl)-2,5-dimethylbenzenesulfonamide] | 15 |
| Cc1cc(S(=O)(=O)Nc2cccc(C(=O)N3CCC[C@H]3C(C)C)c2)c(C)cc1Cl [Example 67, (S)-4-chloro-N-(3-(2-isopropylpyrrolidine-1-carbonyl)phenyl)-2,5-dimethylbenzenesulfonamide] | > 100 |
| Cc1cc(S(=O)(=O)Nc2ccc3ccn(C(C)C)c3c2)c(C)cc1Cl [Example 69, 4-chloro-N-(1-isopropyl-1H-indol-6-yl)-2,5-dimethylbenzenesulfonamide] | 17 |
| Cc1c(Cl)cccc1S(=O)(=O)Nc1csc(-c2ccccc2)n1 [Example 154, 3-chloro-2-methyl-N-(2-phenylthiazol-4-yl)benzenesulfonamide] | > 100 |
| Cc1cc(S(=O)(=O)N[C@H]2CCN(c3ccccc3)C2)c(C)cc1Cl [Example 158, (S)-4-chloro-2,5-dimethyl-N-(1-phenylpyrrolidin-3-yl)benzenesulfonamide] | > 100 |
| Cc1cc(S(=O)(=O)Nc2nc(-c3ccccc3)cn2C)c(C)cc1Cl [Example 159, 4-chloro-2,5-dimethyl-N-(1-methyl-4-phenyl-1H-imidazol-2-yl)benzenesulfonamide] | > 100 |
| Cc1cc(S(=O)(=O)Nc2cccc(C(=O)N3CCC(F)(F)C3)c2)c(C)cc1Cl [Example 160, 4-chloro-N-(3-(3,3-difluoropyrrolidine-1-carbonyl)phenyl)-2,5-dimethylbenzenesulfonamide] | > 100 |
| Cc1cc(S(=O)(=O)N[C@H]2CCCN(c3ccccc3)C2)c(C)cc1Cl [Example 161, (S)-4-chloro-2,5-dimethyl-N-(1-phenylpiperidin-3-yl)benzenesulfonamide] | > 100 |
| Cc1cc(S(=O)(=O)Nc2cccc(C(=O)N3CCCC34CC4)c2)c(C)cc1Cl [Example 162, N-(3-(4-azaspiro[2.4]heptane-4-carbonyl)phenyl)-4-chloro-2,5-dimethylbenzenesulfonamide] | 91 |
| CC(=O)N1CCC(c2nc(NS(=O)(=O)c3cc(C)c(Cl)cc3C)cs2)CC1 [Example 163, N-(2-(1-acetylpiperidin-4-yl)thiazol-4-yl)-4-chloro-2,5-dimethylbenzenesulfonamide] | > 100 |
| Cc1cc(S(=O)(=O)Nc2csc(C(=O)N3CCCC3)n2)c(C)cc1Cl [Example 166, 4-chloro-2,5-dimethyl-N-(2-(pyrrolidine-1-carbonyl)thiazol-4-yl)benzenesulfonamide] | 2 |
| Cc1cc(S(=O)(=O)Nc2csc(C3CCOCC3)n2)c(C)cc1Cl [Example 167, 4-chloro-2,5-dimethyl-N-(2-(tetrahydro-2H-pyran-4-yl)thiazol-4-yl)benzenesulfonamide] | 8 |
